# Measurements as given in ChEMBL document CHEMBL1136913, “Stereoselective synthesis and biological evaluations of novel 3'-deoxy-4'-azaribonucleosides as inhibitors of hepatitis C virus RNA replication” (J Med Chem, 2009).
# How the values were obtained:
# Hepatitis C virus = experiment: Antiviral activity against HCV infected in human HBI10A cells assessed as inhibition of viral-NS3 expression by ELISA; type: functional, organism-based, Hepacivirus hominis
# [1] = Cytotoxicity against human HBI10A cells after 20 hrs by MTS assay; type: cell-based
# [2] = Selectivity index, ratio of CC50 for human HBI10A cells to IC50 for HCV; type: functional
Structure (SMILES),IC50 (Hepatitis C virus) [µM],CC50 at 20 h [1] [µM],Ratio CC50/IC50 [2]
CCOC(=O)N1[C@H](CO)C[C@@H](O)[C@@H]1n1cc(F)c(=O)[nH]c1=O,4.8,> 1000,>=208
CC(C)(C)OC(=O)N1[C@H](CO)C[C@@H](O)[C@@H]1n1ccc(N)nc1=O,96,> 1000,
CC(C)(C)OC(=O)N1[C@H](CO)C[C@@H](O)[C@@H]1n1ccc(=O)[nH]c1=O,40.6,> 1000,
Cc1cn([C@H]2[C@H](O)C[C@@H](CO)N2C(=O)OC(C)(C)C)c(=O)[nH]c1=O,0.018,> 1000,

# Further lines, with some results ahead:
IC50 (Hepatitis C virus) [µM],Structure (SMILES),CC50 at 20 h [1] [µM],Ratio CC50/IC50 [2]
> 1000,CCOC(=O)N1[C@H](CO)C[C@@H](O)[C@H]1n1cc(F)c(=O)[nH]c1=O,200,
0.00035,CC(C)(C)OC(=O)N1[C@H](CO)C[C@@H](O)[C@@H]1n1cc(F)c(=O)[nH]c1=O,623,
